Patent US20220195462A1, “FULLY-HUMAN POST-TRANSLATIONALLY MODIFIED ANTIBODY THERAPEUTICS” (REGENXBIO INC., priority 2019, published 2022)

Tests used:
[1] = system: carrageenan-induced paw edema in mice; experiment: Carrageenan paw edema model in mice; type: in vivo, mouse; settings: C57BL/6 mice, compared with vehicle control group
Source text: Inflammation models induced by carrageenan are frequently used acute inflammation models. Carrageenan (Cg) is a strong chemical agent that functions in stimulating the release of inflammatory and proinflammatory mediators, including bradykinin, histamine, tachykinins, reactive oxygen, and nitrogen species. Typical signs of inflammation include edema, hyperalgesia, and erythema, which develop immediately following the treatment of carrageenan. This example evaluated the effect of AAV-mediated gene delivery of Lanadelumab on carrageenan-induced paw edema in mice.
In total eighty young adult (8-9 weeks old) male C57BL/6 mice were used for this study. Paw edema was induced by a single subcutaneous (s.c.) injection of 30 μL of 0.7% or 1% carrageenan solution. […] Paw volume was measured using a digital Plethysmometer prior to carrageenan injection, and at 2, 4, 6, 8, 24 and 48 hours after injection. All animals were sacrificed 48 hours after carrageenan injection. Liver and paw specimens were also collected at the necropsy.

[2] = biological target: activated human plasma kallikrein (Enzyme Research Laboratories) (human) (UniProt P03952); experiment: cell-based or functional assay

O=C(O)Cc1ccccc1Nc1c(Cl)cccc1Cl [diclofenac, Diclofenac]
paw volume after carrageenan injection ([1]; 0.7% Cg model): significant decrease on paw volume was observed only at 4 and 24 hours | paw volume after carrageenan injection ([1]; 1.0% Cg model): significantly decreased the paw volume at 2, 4, 6, 8 and 24 hours

B1: Lanadelumab (GenScript), purified IgG (antibody, V domains shown)
VH: EVQLLESGGGLVQPGGSLRLSCAASGFTFSHYIMMWVRQAPGKGLEWVSGIYSSGGITVYADSVKGRFTISRDNSKNTLYLQMNSLRAEDTAVYYCAYRRIGVPRRDEFDIWGQGTMVTVSS
VL: DIQMTQSPSTLSASVGDRVTITCRASQSISSWLAWYQQKPGKAPKLLIYKASTLESGVPSRFSGSGSGTEFTLTISSLQPDDFATYYCQQYNTYWTFGQGTKVEIKR
suppression of pKal activity (PFR-AMC fluorogenic kinetic enzymatic assay, antibody dose response) [2]: 0.1 nM

B2: vectorized lanadelumab (AAV8 ApoE.hAAT.L02-derived) in serum, or in total IgG purified from serum, of treated C57BL/6 mice (antibody, V domains shown)
VH: EVQLLESGGGLVQPGGSLRLSCAASGFTFSHYIMMWVRQAPGKGLEWVSGIYSSGGITVYADSVKGRFTISRDNSKNTLYLQMNSLRAEDTAVYYCAYRRIGVPRRDEFDIWGQGTMVTVSS
VL: DIQMTQSPSTLSASVGDRVTITCRASQSISSWLAWYQQKPGKAPKLLIYKASTLESGVPSRFSGSGSGTEFTLTISSLQPDDFATYYCQQYNTYWTFGQGTKVEIKR
percent reduction in pKal activity (serum diluted 1:25, day 49 post-administration vs day -7; PFR-AMC assay) [2]: 50%
